From ChEMBL document CHEMBL3784999, “Investigation of 4-amino-5-alkynylpyrimidine-2(1H)-ones as anti-mycobacterial agents” (Bioorg Med Chem, 2016) come the findings set out here.

The structures appear in SMILES notation. In brackets after ≈: the same amount, converted by molar mass. Activity calls are given as the source filed them. No cut-off for these calls is given here.

In test [1] the test system is Mycobacterium tuberculosis. As to the kind of experiment: Antimycobacterial activity against rifampicin resistant Mycobacterium tuberculosis H37Rv ATCC 35838. Format: functional.
The test system of test [2] is Mycobacterium tuberculosis. As to the kind of experiment: Antimycobacterial activity against rifampicin resistant Mycobacterium tuberculosis H37Rv ATCC 35838 at 2 ug/ml. Format: functional, organism-based.
The subject of test [3] is Mycobacterium tuberculosis. As to the kind of experiment: Antimycobacterial activity against rifampicin resistant Mycobacterium tuberculosis H37Rv ATCC 35838 at 1 ug/ml. Format: functional.

Regarding `CCCCCC#Cc1c[nH]c(=O)nc1N`, the MIC50 (as a rule, the lowest concentration that inhibits either 50% of growth or 50% of the strains tested, depending on the study) in test [1] was found to be 12.5 mg/L (≈ 60.9 µM). `CO[C@H]1/C=C/O[C@@]2(C)Oc3c(C)c(O)c4c(O)c(c(/C=N/N5CCN(C)CC5)c(O)c4c3C2=O)NC(=O)/C(C)=C\C=C\[C@H](C)[C@H](O)[C@@H](C)[C@@H](O)[C@@H](C)[C@H](OC(C)=O)[C@@H]1C` [RIFAMPIN]: the result in test [2] was inactive.

Consider `NNC(=O)c1ccncc1` [ISONIAZID], for which, in test [3], 1 µg/mL produced 100% inhibition.
